# According to patent publication US7507547B2, “Screening assays for antioxidants and antiproliferative compounds” (University of Massachusetts, priority 2004, dated 2009):
# Where two headings read alike, the source gives them in different places.
# How the values were obtained:
# NTR1 = target: T1, NTR1 (Homo sapiens, UniProt P30989); assay: ^125I-NT binding to PC3 cells; settings: for Effect on NT binding in PC3 cells: n=3; for NT Binding Assay: ability to enhance NT binding in PC3 cells; for NT Binding Efficacy % increase: maximal % increase in NT binding observed for each agent
# T1 construct: endogenous in cells; host or cells: PC3 cells (ATCC)
# [1] = set-up: key: +: All of the compounds listed in Table 12 were anticancerous; settings: from anticancer literature; cited from earlier work
# [2] = system: NT-induced inositol phosphate (IP) formation in PC3 cells; assay: NT-induced IP formation in PC3 cells; format: cell-based; settings: for IC50: Homo sapiens, PC-3; for IP Formation Efficacy (% decrease): maximal % decrease in NT-induced IP formation
# PC3 cells = assay: NT-induced proliferation of PC3 cells (^3H-thymidine); format: cell-based; settings: Homo sapiens, PC-3; 24 hours, 10 nM NT; read-out: IC50 for inhibition of NT-induced proliferation
# [3] = general reducing agents and antioxidants
# [4] = [agent] giving 50% decrease in IP formation
# T1 sequence (P30989 whole entry): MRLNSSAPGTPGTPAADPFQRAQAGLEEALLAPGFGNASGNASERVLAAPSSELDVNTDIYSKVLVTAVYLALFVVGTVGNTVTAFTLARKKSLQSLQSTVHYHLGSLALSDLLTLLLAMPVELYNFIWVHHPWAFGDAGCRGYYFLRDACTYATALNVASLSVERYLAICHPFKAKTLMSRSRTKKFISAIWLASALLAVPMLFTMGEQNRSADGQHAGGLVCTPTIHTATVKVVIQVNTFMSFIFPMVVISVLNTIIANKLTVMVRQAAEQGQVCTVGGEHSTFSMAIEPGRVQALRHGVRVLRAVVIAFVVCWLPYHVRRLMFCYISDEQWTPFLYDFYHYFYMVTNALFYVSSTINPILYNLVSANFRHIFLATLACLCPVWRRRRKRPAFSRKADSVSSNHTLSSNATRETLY
molecule,measurement,setting,value
O=C1O[C@H]([C@@H](O)CO)C(O)=C1O [ascorbic acid],Effect on NT binding,NTR1; [3],not much affected
same,Effect on NT binding in PC3 cells,NTR1; used at 20-180 μM,ineffective
N.N.[Cl][Pt][Cl] [cis-platin],Anti-cancer,[1],+
same,NT Binding Assay,NTR1,+
CC/C(=C(/CC)c1ccc(O)cc1)c1ccc(O)cc1 [diethylstilbesterol],Anti-cancer,[1],+
same,NT Binding Assay,NTR1,+
O=c1oc2c(O)c(O)cc3c(=O)oc4c(O)c(O)cc1c4c23 [ellagic acid],Effect on NT binding in PC3 cells,NTR1; used at 10-100 μM,without effect
CC(C)=CCCC(C)=CCCC(C)=CCO [farnesol],Anti-cancer,[1],+
same,NT Binding Assay,NTR1,+
CCOC(=O)C1=C(C)NC(C)=C(C(=O)OC)C1c1cccc(Cl)c1Cl (centres unmarked) [felodipine],IC50,[2]; [4],1000 nM
Fc1ccc(C(c2ccc(F)cc2)N2CCN(C/C=C/c3ccccc3)CC2)cc1 [flunarizine],NT Binding Efficacy % increase,NTR1,45 % increase
O=c1c(-c2ccc(O)cc2)coc2cc(O)cc(O)c12 [genistein],Anti-cancer,[1],+
same,NT Binding Assay,NTR1,+
N[C@@H](CCC(=O)N[C@@H](CS)C(=O)NCC(=O)O)C(=O)O [glutathione],Effect on NT binding in PC3 cells,NTR1; used at 1-3 mM,without effect
O=c1cc(-c2ccc(O)c(O)c2)oc2cc(O)cc(O)c12 [luteolin],IC50,[2]; [4],38000 nM
same,Anti-cancer,[1],+
same,EC50,NTR1; [agent] giving 75% increase in NT binding,40000 nM
same,NT Binding Assay,NTR1,+
Clc1ccc(COC(Cn2ccnc2)c2ccc(Cl)cc2Cl)c(Cl)c1 (centres unmarked) [miconazole],IP Formation Efficacy (% decrease),[2],54 % decrease
COC(=O)C1=C(C)NC(C)=C(C(=O)OCCN(C)Cc2ccccc2)C1c1cccc([N+](=O)[O-])c1 (centres unmarked) [nicardipine],IC50,PC3 cells,100 nM
same,IC50,[2]; [4],3000 nM
CCOC(=O)C1=C(C)NC(C)=C(C(=O)OC)C1c1cccc([N+](=O)[O-])c1 (centres unmarked) [nitrendipine],IC50,[2]; [4],2000 nM
c1cnc2c(c1)ccc1cccnc12 [o-phenanthroline],Anti-cancer,[1],+
same,NT Binding Assay,NTR1,+
Cc1ncc(CO)c(CO)c1O [pyridoxine],Effect on NT binding,NTR1; [3],not much affected
same,Effect on NT binding in PC3 cells,NTR1; used at 20-180 μM,ineffective
Cc1cc2nc3c(=O)[nH]c(=O)nc-3n(C[C@H](O)[C@H](O)[C@H](O)CO)c2cc1C [riboflavin],Effect on NT binding,NTR1; [3],not much affected
same,Effect on NT binding in PC3 cells,NTR1; used at 20-180 μM,ineffective
C=C(C)[C@H]1Cc2c(ccc3c2O[C@@H]2COc4cc(OC)c(OC)cc4[C@@H]2C3=O)O1 [rotenone],Anti-cancer,[1],+
same,NT Binding Assay,NTR1,+
C[C@@H]1O[C@@H](OC[C@H]2O[C@@H](Oc3c(-c4ccc(O)c(O)c4)oc4cc(O)cc(O)c4c3=O)[C@H](O)[C@@H](O)[C@@H]2O)[C@H](O)[C@H](O)[C@H]1O [rutin],Efficacy for altering NT binding to NTR,NTR1; flavonoids,inactive
[BH4-].[Na+] [sodium borohydride],Effect on NT binding,NTR1,not much affected
same,Effect on NT binding in PC3 cells,NTR1; used at 1-3 mM,without effect
COc1ccc2cc1Oc1ccc(cc1)C[C@H]1c3cc(c(OC)cc3CCN1C)Oc1c(OC)c(OC)cc3c1[C@H](C2)N(C)CC3 [tetrandrine],NT Binding Efficacy % increase,NTR1,35 % increase
Cc1ncc(C[n+]2csc(CCO)c2C)c(N)n1 [thiamine],Effect on NT binding,NTR1; [3],not much affected
same,Effect on NT binding in PC3 cells,NTR1; used at 20-180 μM,ineffective
CN1CCN(CCCN2c3ccccc3Sc3ccc(C(F)(F)F)cc32)CC1 [trifluoperazine],IC50,[2]; [agent] at which IP formation was decreased by 50%,> 100000 nM
same,IP Formation Efficacy (% decrease),[2],14 % decrease
same,NT Binding Efficacy % increase,NTR1,16 % increase
Cc1c(C)c2c(c(C)c1O)CCC(C)(C(=O)O)O2 (centres unmarked) [trolox],Effect on NT binding,NTR1; [3],not much affected
same,Effect on NT binding in PC3 cells,NTR1; used at 10-100 μM,without effect
"CC1=CC(=O)c2ccccc2C1=O [vitamin K, menadione]",NT binding (% of control) at 180 µM,NTR1; 180 μM,168 ± 8%
Cc1c(C)c2c(c(C)c1O)CC[C@@](C)(CCC[C@H](C)CCC[C@H](C)CCCC(C)C)O2 [α-tocoferol],Effect on NT binding in PC3 cells,NTR1; used at 20-180 μM,ineffective
CC1=C(/C=C/C(C)=C/C=C/C(C)=C/C=C/C=C(C)/C=C/C=C(C)/C=C/C2=C(C)CCCC2(C)C)C(C)(C)CCC1 [β-carotene],Effect on NT binding in PC3 cells,NTR1; used at 20-180 μM,ineffective
(−)-epigallocatechin gallate,Effect on NT binding in PC3 cells,NTR1; used at 10-100 μM,without effect
Mevinolin,Anti-cancer,[1],+
same,NT Binding Assay,NTR1,+
antimycin A,Anti-cancer,[1],+
bisindole maleimide,Anti-cancer,[1],+
same,NT Binding Assay,NTR1,+
